Results from ChEMBL document CHEMBL5291721, “A preclinical secondary pharmacology resource illuminates target-adverse drug reaction associations of marketed drugs” (Nat Commun, 2023).

How the values were obtained:
[1] = target: Beta-3 adrenergic receptor (Homo sapiens, UniProt P13945)
[2] = target: Vasopressin V1a receptor (Homo sapiens, UniProt P37288)
[3] = target: Vasopressin V2 receptor (Homo sapiens, UniProt P30518)
[4] = target: Voltage-dependent L-type calcium channel subunit alpha-1C (Rattus norvegicus, UniProt P22002); format: functional
[5] = target: Cannabinoid receptor 1 (Homo sapiens, UniProt P21554)
Chain of Cannabinoid receptor 1 (P21554 whole entry): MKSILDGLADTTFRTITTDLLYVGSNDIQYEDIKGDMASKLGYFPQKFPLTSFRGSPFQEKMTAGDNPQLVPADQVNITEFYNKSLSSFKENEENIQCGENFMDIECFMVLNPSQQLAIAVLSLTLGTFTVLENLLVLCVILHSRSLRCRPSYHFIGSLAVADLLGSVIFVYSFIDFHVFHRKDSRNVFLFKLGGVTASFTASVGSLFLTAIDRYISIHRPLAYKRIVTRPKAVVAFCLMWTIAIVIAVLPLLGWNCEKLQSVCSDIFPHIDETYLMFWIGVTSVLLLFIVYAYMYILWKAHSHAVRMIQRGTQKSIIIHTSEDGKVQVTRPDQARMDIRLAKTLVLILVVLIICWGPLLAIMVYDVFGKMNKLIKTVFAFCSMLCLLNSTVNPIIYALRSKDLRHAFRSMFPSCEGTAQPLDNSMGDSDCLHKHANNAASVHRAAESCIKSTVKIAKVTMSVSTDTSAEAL

[6] = target: Histamine H2 receptor (Homo sapiens, UniProt P25021); format: functional, cell-based
Chain of Histamine H2 receptor (P25021 whole entry): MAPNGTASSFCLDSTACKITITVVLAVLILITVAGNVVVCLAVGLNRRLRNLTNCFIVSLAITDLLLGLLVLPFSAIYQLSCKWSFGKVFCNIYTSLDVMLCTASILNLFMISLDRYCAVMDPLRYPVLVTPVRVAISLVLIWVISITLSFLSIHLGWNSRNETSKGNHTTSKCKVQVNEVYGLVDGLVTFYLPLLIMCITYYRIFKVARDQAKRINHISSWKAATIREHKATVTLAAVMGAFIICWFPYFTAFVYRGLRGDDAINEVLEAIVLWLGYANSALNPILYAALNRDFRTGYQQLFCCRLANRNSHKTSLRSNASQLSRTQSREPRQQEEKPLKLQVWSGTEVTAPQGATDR

[7] = target: T1, Muscarinic acetylcholine receptor M2 (Homo sapiens, UniProt P08172)
T1 sequence (P08172 whole entry): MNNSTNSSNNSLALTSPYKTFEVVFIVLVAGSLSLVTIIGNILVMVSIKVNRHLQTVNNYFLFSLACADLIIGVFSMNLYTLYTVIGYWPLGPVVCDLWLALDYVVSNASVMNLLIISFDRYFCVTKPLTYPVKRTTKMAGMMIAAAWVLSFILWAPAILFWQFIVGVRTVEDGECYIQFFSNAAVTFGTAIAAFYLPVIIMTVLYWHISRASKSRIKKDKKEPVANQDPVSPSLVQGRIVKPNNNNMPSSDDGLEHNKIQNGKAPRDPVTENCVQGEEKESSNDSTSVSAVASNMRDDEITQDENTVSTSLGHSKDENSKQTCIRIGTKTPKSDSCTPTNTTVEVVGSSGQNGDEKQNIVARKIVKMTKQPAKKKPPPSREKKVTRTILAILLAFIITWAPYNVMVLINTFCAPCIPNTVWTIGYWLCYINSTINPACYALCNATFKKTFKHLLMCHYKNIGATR

[8] = target: T2, Adenosine receptor A3 (Homo sapiens, UniProt P0DMS8)
T2 sequence (P0DMS8 whole entry): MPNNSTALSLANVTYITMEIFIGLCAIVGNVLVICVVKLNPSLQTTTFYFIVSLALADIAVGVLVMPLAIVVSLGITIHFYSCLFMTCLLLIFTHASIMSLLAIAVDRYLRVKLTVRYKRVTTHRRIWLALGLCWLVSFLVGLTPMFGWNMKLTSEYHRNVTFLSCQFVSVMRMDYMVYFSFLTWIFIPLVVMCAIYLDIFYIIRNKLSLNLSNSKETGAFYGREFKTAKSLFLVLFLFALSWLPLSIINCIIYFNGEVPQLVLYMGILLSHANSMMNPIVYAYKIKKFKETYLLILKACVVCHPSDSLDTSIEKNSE

[9] = target: T3, Alpha-1A adrenergic receptor (Homo sapiens, UniProt P35348); format: functional, cell-based
T3 sequence (P35348 whole entry): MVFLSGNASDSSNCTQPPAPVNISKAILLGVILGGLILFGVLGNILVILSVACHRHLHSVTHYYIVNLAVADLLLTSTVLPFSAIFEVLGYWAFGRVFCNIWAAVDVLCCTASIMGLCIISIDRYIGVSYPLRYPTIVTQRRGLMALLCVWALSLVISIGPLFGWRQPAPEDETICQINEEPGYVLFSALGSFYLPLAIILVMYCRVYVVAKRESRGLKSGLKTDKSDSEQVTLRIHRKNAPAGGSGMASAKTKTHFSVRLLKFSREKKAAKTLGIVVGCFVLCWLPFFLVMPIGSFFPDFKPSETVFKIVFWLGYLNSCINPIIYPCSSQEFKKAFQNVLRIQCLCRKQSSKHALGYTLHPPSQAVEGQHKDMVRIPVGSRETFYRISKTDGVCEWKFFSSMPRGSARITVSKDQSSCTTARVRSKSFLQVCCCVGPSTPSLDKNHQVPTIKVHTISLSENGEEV

[10] = target: T4, Alpha-2A adrenergic receptor (Homo sapiens, UniProt P08913)
T4 sequence (P08913 whole entry): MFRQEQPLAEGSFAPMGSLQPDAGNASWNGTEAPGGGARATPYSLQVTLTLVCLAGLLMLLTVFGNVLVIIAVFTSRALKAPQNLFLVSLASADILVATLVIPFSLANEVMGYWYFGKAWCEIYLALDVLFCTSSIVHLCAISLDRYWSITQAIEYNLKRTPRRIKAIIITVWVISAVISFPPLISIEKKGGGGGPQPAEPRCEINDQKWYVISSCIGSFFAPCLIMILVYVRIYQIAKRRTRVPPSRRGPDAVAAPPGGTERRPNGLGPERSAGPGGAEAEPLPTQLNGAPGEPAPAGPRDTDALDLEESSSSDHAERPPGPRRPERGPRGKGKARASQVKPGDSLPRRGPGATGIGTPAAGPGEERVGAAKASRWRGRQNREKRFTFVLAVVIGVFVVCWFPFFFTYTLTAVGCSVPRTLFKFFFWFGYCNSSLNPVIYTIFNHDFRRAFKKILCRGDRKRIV

[11] = target: D(1A) dopamine receptor (Homo sapiens, UniProt P21728)
Chain of D(1A) dopamine receptor (P21728 whole entry): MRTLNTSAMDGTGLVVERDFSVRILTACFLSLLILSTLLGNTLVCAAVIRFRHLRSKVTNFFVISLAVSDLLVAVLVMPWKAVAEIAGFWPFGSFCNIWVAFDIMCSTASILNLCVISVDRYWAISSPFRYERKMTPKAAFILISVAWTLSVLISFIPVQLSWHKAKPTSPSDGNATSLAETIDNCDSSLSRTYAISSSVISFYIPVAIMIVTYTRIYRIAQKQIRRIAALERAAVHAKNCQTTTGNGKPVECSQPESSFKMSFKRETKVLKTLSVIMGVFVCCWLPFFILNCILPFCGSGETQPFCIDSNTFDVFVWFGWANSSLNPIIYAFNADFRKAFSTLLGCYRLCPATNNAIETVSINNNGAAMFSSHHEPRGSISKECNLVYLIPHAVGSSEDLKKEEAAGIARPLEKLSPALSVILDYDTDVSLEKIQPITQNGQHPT

[12] = target: Gamma-aminobutyric acid receptor subunit alpha-1/alpha-2/beta-2/gamma-2 (Homo sapiens, UniProt P14867+P18507+P47869+P47870); format: protein-complex assay
[13] = target: Vascular endothelial growth factor receptor 2 (Homo sapiens, UniProt P35968); format: functional
Chain of Vascular endothelial growth factor receptor 2 (P35968 whole entry): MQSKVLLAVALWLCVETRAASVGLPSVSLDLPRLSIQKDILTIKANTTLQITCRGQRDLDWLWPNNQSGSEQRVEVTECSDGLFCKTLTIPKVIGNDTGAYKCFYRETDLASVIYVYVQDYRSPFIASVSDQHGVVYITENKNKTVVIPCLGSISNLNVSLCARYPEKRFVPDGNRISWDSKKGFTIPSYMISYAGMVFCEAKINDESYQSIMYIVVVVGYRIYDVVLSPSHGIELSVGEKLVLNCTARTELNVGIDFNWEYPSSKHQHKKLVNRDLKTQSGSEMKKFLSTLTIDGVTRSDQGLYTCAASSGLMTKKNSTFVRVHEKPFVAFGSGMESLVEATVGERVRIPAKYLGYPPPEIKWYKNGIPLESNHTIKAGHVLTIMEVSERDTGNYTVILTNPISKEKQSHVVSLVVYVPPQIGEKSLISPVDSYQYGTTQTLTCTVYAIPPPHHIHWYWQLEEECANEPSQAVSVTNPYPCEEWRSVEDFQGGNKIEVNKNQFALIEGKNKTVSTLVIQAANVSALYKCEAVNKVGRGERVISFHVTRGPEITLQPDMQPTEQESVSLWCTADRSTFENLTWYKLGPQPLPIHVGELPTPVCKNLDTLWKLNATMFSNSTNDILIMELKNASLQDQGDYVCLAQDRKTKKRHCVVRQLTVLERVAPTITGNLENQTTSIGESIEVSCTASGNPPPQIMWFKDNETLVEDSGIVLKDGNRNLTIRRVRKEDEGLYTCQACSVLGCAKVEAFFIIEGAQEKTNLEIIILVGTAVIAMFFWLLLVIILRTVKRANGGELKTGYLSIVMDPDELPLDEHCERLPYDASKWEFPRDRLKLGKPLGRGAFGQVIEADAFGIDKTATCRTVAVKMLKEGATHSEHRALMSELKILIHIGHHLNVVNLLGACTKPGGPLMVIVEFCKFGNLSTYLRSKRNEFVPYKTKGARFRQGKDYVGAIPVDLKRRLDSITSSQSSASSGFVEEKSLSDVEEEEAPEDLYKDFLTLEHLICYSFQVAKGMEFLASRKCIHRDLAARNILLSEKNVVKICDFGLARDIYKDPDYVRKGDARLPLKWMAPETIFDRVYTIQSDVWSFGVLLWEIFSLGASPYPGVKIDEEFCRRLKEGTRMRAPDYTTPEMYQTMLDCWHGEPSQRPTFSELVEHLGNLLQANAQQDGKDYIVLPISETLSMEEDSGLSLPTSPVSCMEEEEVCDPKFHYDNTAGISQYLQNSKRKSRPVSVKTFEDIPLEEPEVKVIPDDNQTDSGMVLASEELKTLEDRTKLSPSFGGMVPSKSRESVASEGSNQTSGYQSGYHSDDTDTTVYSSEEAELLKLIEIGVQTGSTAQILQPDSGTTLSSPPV

[14] = target: T5, Prostaglandin G/H synthase 1 (Homo sapiens, UniProt P23219); format: functional
T5 sequence (P23219 whole entry): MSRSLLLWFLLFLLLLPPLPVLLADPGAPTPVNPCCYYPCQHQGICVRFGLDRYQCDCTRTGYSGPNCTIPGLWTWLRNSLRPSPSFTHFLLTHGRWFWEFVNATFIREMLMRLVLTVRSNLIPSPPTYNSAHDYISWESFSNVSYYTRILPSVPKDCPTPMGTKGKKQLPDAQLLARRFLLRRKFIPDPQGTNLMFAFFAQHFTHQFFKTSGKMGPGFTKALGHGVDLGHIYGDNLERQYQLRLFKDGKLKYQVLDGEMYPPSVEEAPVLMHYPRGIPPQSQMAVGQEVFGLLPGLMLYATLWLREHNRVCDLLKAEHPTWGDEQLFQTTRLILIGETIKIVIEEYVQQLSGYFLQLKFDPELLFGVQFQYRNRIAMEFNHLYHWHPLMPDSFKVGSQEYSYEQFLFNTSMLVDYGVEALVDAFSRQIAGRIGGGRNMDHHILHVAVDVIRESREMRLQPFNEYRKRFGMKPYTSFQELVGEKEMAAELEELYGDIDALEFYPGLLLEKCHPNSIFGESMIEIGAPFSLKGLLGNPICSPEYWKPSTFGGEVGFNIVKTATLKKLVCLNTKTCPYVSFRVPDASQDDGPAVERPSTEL

[15] = target: T5, Prostaglandin G/H synthase 1; format: functional; remark: listed apart in the source
[16] = target: T6, Muscarinic acetylcholine receptor M1 (Homo sapiens, UniProt P11229); format: functional
T6 sequence (P11229 whole entry): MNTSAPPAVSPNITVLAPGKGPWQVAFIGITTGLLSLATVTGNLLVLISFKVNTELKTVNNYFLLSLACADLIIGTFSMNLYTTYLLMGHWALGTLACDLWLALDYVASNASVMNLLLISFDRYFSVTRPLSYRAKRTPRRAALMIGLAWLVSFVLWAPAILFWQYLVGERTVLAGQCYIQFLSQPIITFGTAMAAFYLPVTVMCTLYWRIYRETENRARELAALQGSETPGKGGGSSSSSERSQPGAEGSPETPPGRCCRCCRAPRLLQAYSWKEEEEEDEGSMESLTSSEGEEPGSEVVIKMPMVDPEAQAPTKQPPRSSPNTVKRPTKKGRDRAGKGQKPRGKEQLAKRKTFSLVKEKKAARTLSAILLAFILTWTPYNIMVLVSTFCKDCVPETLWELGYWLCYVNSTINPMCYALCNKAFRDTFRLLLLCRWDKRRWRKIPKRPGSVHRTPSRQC
Note: assay procedure not described here.

Chain of Vasopressin V1a receptor (P37288 whole entry): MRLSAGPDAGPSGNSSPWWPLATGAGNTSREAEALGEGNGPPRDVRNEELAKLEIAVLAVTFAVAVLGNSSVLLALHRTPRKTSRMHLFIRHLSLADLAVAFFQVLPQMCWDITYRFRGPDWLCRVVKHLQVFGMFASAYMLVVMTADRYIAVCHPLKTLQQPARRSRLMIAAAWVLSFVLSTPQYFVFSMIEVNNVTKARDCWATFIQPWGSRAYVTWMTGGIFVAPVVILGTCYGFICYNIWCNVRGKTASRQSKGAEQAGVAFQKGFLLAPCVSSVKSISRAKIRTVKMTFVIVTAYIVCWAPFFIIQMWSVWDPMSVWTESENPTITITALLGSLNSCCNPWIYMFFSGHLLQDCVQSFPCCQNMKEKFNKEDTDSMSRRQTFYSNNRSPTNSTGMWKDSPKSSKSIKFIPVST
Chain of Vasopressin V2 receptor (P30518 whole entry): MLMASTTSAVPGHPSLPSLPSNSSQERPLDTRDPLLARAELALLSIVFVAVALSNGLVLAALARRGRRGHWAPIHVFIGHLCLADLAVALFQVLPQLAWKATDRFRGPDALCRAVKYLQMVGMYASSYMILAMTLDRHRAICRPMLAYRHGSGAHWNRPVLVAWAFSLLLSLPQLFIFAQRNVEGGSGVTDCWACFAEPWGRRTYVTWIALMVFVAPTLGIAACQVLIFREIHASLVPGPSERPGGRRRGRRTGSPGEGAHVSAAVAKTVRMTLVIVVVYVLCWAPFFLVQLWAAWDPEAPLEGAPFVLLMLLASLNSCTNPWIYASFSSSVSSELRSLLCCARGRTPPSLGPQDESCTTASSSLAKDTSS
Chain of Beta-3 adrenergic receptor (P13945 whole entry): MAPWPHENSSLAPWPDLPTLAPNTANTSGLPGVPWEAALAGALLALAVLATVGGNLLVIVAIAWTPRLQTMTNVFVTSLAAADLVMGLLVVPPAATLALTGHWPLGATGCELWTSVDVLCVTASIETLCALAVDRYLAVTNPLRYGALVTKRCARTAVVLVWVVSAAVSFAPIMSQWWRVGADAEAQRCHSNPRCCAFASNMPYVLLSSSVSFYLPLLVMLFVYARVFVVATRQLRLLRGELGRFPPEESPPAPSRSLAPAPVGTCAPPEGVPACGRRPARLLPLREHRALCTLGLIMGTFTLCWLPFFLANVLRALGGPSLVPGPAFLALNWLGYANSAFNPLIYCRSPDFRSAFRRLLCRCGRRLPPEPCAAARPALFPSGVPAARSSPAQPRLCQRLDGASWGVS

SMILES | AC50 [1] [µM] | AC50 [2] [µM] | AC50 [3] [µM] | AC50 [4] [µM] | AC50 [5] [µM] | AC50 [6] [µM] | AC50 [7] [µM] | AC50 [8] [µM] | AC50 [9] [µM] | AC50 [10] [µM] | AC50 [11] [µM] | AC50 [12] [µM] | AC50 [13] [µM] | AC50 [14] [µM] | AC50 [15] [µM] | AC50 [16] [µM]
CCOC(=O)[C@H](CCc1ccccc1)N[C@@H](C)C(=O)N1CCC[C@H]1C(=O)O | > 30 | > 10 | > 30 | > 10 | > 10 | > 10 | > 10 | – | – | – | – | – | – | – | – | –
Nc1nc(N)c2nc(-c3ccccc3)c(N)nc2n1 | > 30 | > 30 | > 30 | > 30 | > 30 | > 30 | > 10 | > 30 | > 30 | > 30 | > 30 | > 30 | > 30 | > 30 | > 30 | –
C[C@H]1O[C@H](O[C@H]2[C@H](O)[C@@H](O)[C@@H](O[C@H]3[C@H](O)[C@@H](O)C(O)O[C@@H]3CO)O[C@@H]2CO)[C@H](O)[C@@H](O)[C@@H]1N[C@H]1C=C(CO)[C@@H](O)[C@H](O)[C@H]1O (stereo not given in full) [ACARBOSE] | > 30 | > 30 | > 30 | > 10 | > 10 | > 10 | > 10 | > 30 | > 30 | > 30 | > 30 | – | > 30 | > 30 | 24.4 | –
Oc1ncnc2[nH]ncc12 [ALLOPURINOL] | > 30 | > 10 | > 30 | > 10 | > 10 | > 10 | > 10 | > 30 | > 30 | > 30 | > 30 | > 30 | > 30 | > 30 | > 30 | –
CC(N)Cc1ccccc1 (stereo not given) [AMPHETAMINE] | > 30 | > 30 | > 30 | > 10 | > 10 | > 10 | > 10 | – | – | – | – | – | – | – | – | > 30
CC(C)NCC(O)COc1ccc(COCCOC(C)C)cc1 (stereo not given) [BISOPROLOL] | – | > 10 | > 30 | > 10 | > 10 | > 10 | > 10 | – | – | – | – | – | – | – | – | > 10
COc1cc(Nc2c(C#N)cnc3cc(OCCCN4CCN(C)CC4)c(OC)cc23)c(Cl)cc1Cl [BOSUTINIB] | 16.8 | 4.7 | – | > 10 | > 10 | – | 6.04 | – | – | 7.58 | 4.64 | – | – | > 30 | > 30 | > 10
CCC[C@@H]1C[C@@H](C(=O)N[C@@H]([C@H]2O[C@H](SC)[C@H](O)[C@@H](O)[C@H]2O)[C@H](C)Cl)N(C)C1 [CLINDAMYCIN] | > 30 | > 10 | > 30 | > 10 | > 10 | > 10 | > 10 | – | – | – | – | – | – | – | – | –
CN(CCOc1ccc(NS(C)(=O)=O)cc1)CCc1ccc(NS(C)(=O)=O)cc1 [DOFETILIDE] | > 30 | > 10 | > 30 | – | > 10 | > 30 | > 10 | > 30 | > 30 | > 30 | > 30 | > 30 | > 30 | > 30 | > 30 | > 10
COC(=O)[C@@H]1CC2=CC(=O)CC[C@]2(C)[C@@]23O[C@@H]2C[C@@]2(C)[C@@H](CC[C@@]24CCC(=O)O4)[C@H]13 [EPLERENONE] | > 30 | > 30 | > 30 | > 10 | > 10 | > 10 | > 10 | – | – | – | – | – | – | – | – | > 30
C#C[C@]1(O)CC[C@H]2[C@@H]3CCc4cc(O)ccc4[C@H]3CC[C@@]21C [ETHINYL ESTRADIOL] | 35.4 | > 10 | > 30 | > 10 | > 10 | > 10 | > 10 | – | > 10 | > 30 | > 30 | – | – | > 30 | > 30 | –
NC(N)=Nc1nc(CSCCC(N)=NS(N)(=O)=O)cs1 [FAMOTIDINE] | > 30 | > 10 | > 30 | > 10 | > 10 | > 10 | > 10 | – | – | – | – | – | – | – | – | –
NS(=O)(=O)c1cc2c(cc1Cl)NCNS2(=O)=O [HYDROCHLOROTHIAZIDE] | > 30 | > 10 | > 30 | > 10 | > 10 | > 10 | > 10 | – | – | – | – | – | – | – | – | –
CC(C(=O)O)c1ccc(N2CC=CC2)c(Cl)c1 (stereo not given) [PIRPROFEN] | > 30 | > 10 | > 30 | > 10 | > 10 | > 10 | > 10 | > 30 | > 30 | > 30 | > 30 | > 30 | > 30 | 0.0325 | 0.115 | > 10
O=C(CCCCCCC(=O)Nc1ccccc1)NO [VORINOSTAT] | – | > 30 | > 30 | > 10 | > 10 | > 30 | > 10 | – | – | – | – | – | – | – | – | > 30
